pIC50: −log10 of the molar value. Where only a bound is given, the exact number is not on record here.

T1 sequence (O75417 1-899): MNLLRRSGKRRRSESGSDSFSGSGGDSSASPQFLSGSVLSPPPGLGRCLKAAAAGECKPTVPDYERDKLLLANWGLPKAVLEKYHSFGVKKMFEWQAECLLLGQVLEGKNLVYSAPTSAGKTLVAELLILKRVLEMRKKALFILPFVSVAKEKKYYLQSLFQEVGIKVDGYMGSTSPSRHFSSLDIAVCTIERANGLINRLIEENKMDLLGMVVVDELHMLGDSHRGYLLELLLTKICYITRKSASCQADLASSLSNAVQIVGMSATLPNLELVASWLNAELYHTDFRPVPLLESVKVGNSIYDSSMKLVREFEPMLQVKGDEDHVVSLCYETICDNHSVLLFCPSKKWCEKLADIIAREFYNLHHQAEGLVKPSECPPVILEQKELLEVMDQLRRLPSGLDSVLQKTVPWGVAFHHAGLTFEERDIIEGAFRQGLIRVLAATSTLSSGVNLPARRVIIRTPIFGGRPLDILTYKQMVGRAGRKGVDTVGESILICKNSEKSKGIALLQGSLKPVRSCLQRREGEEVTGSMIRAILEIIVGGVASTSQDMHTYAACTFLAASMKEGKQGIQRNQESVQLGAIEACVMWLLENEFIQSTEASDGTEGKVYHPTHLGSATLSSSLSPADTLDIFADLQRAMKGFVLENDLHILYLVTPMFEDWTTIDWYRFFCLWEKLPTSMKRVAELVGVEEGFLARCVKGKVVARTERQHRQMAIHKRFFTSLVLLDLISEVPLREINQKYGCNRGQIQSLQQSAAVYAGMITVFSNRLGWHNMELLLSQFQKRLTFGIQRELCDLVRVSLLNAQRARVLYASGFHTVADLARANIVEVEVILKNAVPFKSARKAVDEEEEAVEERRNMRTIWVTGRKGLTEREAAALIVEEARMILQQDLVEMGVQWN

One experiment has as its target T1, Pol theta (1-899) (Homo sapiens, UniProt O75417).
T1 construct: Pol theta (1-899) (5 nM) in assay buffer
The experiment is described as follows: Pol theta ATPase activity, NADH oxidation-coupled enzymatic assay (ATPase NADH coupling: Standard Screening: hPolQ). Format: biochemical. Particulars: Pol theta (1-899) 5 nM, NADH oxidation-coupled ATPase assay; compounds of Table 3. In a few lines:
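Rates of ATP hydrolysis taken from 60-min A340 traces of NADH oxidation via PK/LDH coupling, then fit four-parameter for IC50, Hill slope and max inhibition. Enzyme (5 nM, 1-899) and compounds preincubated 15 min before ATP 100 μM and 50-thymine ssDNA 300 nM (stock, equal volume added).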
`COc1nnc(NC(=O)c2cnc(C)cc2-c2cccc(F)c2C#N)s1` [Example 430, 4-(2-cyano-3-fluorophenyl)-N-(5-methoxy-1,3,4-thiadiazol-2-yl)-6-methylpyridine-3-carboxamide] gave a pIC50 of 6.00 to 6.30. `COc1cnc(Cl)cc1-c1cc(C)ncc1C(=O)Nc1nnc(O[C@@H]2C[C@H](F)CN(C)C2)s1` [Example 267, 2′-chloro-N-(5-(((3R,5S)-5-fluoro-1-methylpiperidin-3-yl)oxy)-1,3,4-thiadiazol-2-yl)-5′-methoxy-6-methyl-[4,4′-bipyridine]-3-carboxamide] had a negative-log IC50 (pIC50) not below 6.70. The same measure, in the same setting: under `CCOc1cc(C(=O)Nc2nnc(OC)s2)c(-c2cc(Cl)ncc2OC)cn1` [Example 276, 2′-chloro-6-ethoxy-5′-methoxy-N-(5-methoxy-1,3,4-thiadiazol-2-yl)-[3,4′-bipyridine]-4-carboxamide] stands not below 6.70; under `COc1cnc(C)c(F)c1-c1cc(C)ncc1C(=O)Nc1nnc(OC2([C@H]3CCOC3)CC2)s1` (single isomer, unassigned) [Example 287], not below 6.70; under `COc1nnc(NC(=O)c2cnc(C)cc2-c2cc(Cl)c([S+](C)[O-])cc2OC)s1` (single isomer, unassigned) [Example 277], not below 6.70. On the same count and under the same terms, under `COc1nnc(NC(=O)c2cnc(C)cc2-c2cccc(OC(F)(F)F)c2)s1` [Example 408, N-(5-methoxy-1,3,4-thiadiazol-2-yl)-6-methyl-4-[3-(trifluoromethoxy)phenyl]pyridine-3-carboxamide] stands 6.00 to 6.30; under `COc1nnc(NC(=O)c2cnc(C)cc2-c2cccc(C(F)(F)F)c2)s1` [Example 359, N-(5-methoxy-1,3,4-thiadiazol-2-yl)-6-methyl-4-[3-(trifluoromethyl)phenyl]pyridine-3-carboxamide], not below 6.70; under `COc1nnc(NC(=O)c2cnc(C)cc2-c2cccnc2)s1` [Example 331, N-(5-methoxy-1,3,4-thiadiazol-2-yl)-6′-methyl-[3,4′-bipyridine]-3′-carboxamide], 5.00 to 6.00. `COc1nnc(NC(=O)c2cnc(C)cc2-c2ccc(C#N)cc2)s1` [Example 365, 4-(4-cyanophenyl)-N-(5-methoxy-1,3,4-thiadiazol-2-yl)-6-methylpyridine-3-carboxamide] had a pIC50 of 5.00 to 6.00. On the same count and under the same terms, under `COc1nnc(NC(=O)c2cnc(C)cc2-c2ccc3c(c2)OCCN3C)s1` [Example 418, N-(5-methoxy-1,3,4-thiadiazol-2-yl)-6-methyl-4-(4-methyl-3,4-dihydro-2H-1,4-benzoxazin-7-yl)pyridine-3-carboxamide] stands 5.00 to 6.00; under `COc1cnc(Cl)cc1-c1cc(C)ncc1C(=O)Nc1nnc(OC2([C@H]3CCOC3)CC2)s1` (single isomer, unassigned) [Example 297], not below 6.70.

The experiment is the same for the next values; noted with them: Table 4; Pol theta (1-899) 5 nM, ATP, dT50 ssDNA.
In turn, `COc1cnc(Cl)cc1-c1cc(C)ncc1C(=O)Nc1nnc(OCC(C)C)s1` [Example 21, 2′-chloro-N-(5-isobutoxy-1,3,4-thiadiazol-2-yl)-5′-methoxy-6-methyl-(4,4′-bipyridine)-3-carboxamide] gave a negative-log IC50 (pIC50) not below 6.70. On to `COc1nnc(NC(=O)c2cnc(C)cc2-c2ccnc(Cl)c2)s1` [Example 75, 2′-chloro-N-(5-methoxy-1,3,4-thiadiazol-2-yl)-6-methyl-(4,4′-bipyridine)-3-carboxamide], for which the pIC50 is not below 6.70. Take `COc1nnc(NC(=O)c2cnc(C)cc2-c2cc3[nH]cnc3cc2OC)s1` [Example 71, N-(5-methoxy-1,3,4-thiadiazol-2-yl)-4-(5-methoxy-1H-benzo(d)imidazol-6-yl)-6-methylnicotinamide]: the negative logarithm of the IC50 (pIC50) was 5.00 to 6.00. Same read-out and setting: under `COc1nnc(NC(=O)c2cnc(C)cc2-c2c(Cl)cccc2OC(F)F)s1` [Example 55, 4-(2-chloro-6-(difluoromethoxy)phenyl)-N-(5-methoxy-1,3,4-thiadiazol-2-yl)-6-methylnicotinamide] stands 6.30 to 6.70.

Staying with this experiment, now noted: Table 5; Pol theta (1-899) 5 nM, ATP, dT50 ssDNA.
`COc1cnc(Cl)cc1-c1cc(C)ncc1C(=O)Nc1nnc(O[C@H]2CC[C@]3(CCO3)CC2)s1` (single isomer, unassigned) [Example 185, N-(5-(((4s, 7s)-1-oxaspiro(3.5)nonan-7-yl)oxy)-1,3,4-thiadiazol-2-yl)-2′-chloro-5′-methoxy-6-methyl-(4,4′-bipyridine)-3-carboxamide] gave a negative-log IC50 (pIC50) not below 6.70. On the same count and under the same terms, for `COc1cnc(Cl)cc1-c1cc(C)ncc1C(=O)Nc1nnc(O[C@@H]2CC[C@H]2O)s1` (single isomer, unassigned) [Example 118] the value was not below 6.70; for `COc1cnc(Cl)cc1-c1cc(C)ncc1C(=O)Nc1nnc(O[C@@H]2COCC2(F)F)s1` (single isomer, unassigned) [Example 127], not below 6.70.

`COc1cnc(Cl)cc1-c1cc(C)ncc1C(=O)Nc1nnc(O[C@H]2CO[C@@H](C)C2)s1` (single isomer, unassigned) [Example 191] gave a negative-log IC50 (pIC50) not below 6.70. Compound `COc1cnc(Cl)cc1-c1cc(C)ncc1C(=O)Nc1nnc(O[C@@H]2CCC[C@H](OC)C2)s1` (single isomer, unassigned) [Example 146] had a negative logarithm of the IC50 (pIC50) not below 6.70. Same read-out and setting: for `COc1cnc(Cl)cc1-c1cc(C)ncc1C(=O)Nc1nnc(O[C@H]2CC[C@@H](C(C)(C)O)CC2)s1` [Example 175, 2′-chloro-N-(5-(((1s,4s)-4-(2-hydroxypropan-2-yl)cyclohexyl)oxy)-1,3,4-thiadiazol-2-yl)-5′-methoxy-6-methyl-(4,4′-bipyridine)-3-carboxamide] the value was not below 6.70.

The same experiment, now with this note: Table 5; values given as bound; Pol theta (1-899) 5 nM, ATP, dT50 ssDNA.
`COc1nnc(NC(=O)c2cn(C)nc2-c2cc(Cl)ncc2OC)s1` [Example 110, 3-(2-chloro-5-methoxypyridin-4-yl)-N-(5-methoxy-1,3,4-thiadiazol-2-yl)-1-methyl-1H-pyrazole-4-carboxamide] had a pIC50 of less than 5.00. Same read-out and setting: for `COc1nnc(NC(=O)c2nn(C)cc2-c2cc(Cl)ncc2OC)s1` [Example 107, 4-(2-chloro-5-methoxypyridin-4-yl)-N-(5-methoxy-1,3,4-thiadiazol-2-yl)-1-methyl-1H-pyrazole-3-carboxamide] the value was less than 5.00.

For orientation: pIC50 means −log10 of the IC50, conventionally taken in molar units. Read a low pIC50 as a large IC50.

(Values after patent US20240287080A1 (IDEAYA Biosciences Inc., priority 2021, published 2024).)
